Data from patent US20260108546A1 (ELI LILLY AND COMPANY, priority 2024, published 2026).

Target: T1, hGIP-R (Homo sapiens, UniProt P48546)
T1 construct: expressed in transfected cells; host or cells: HEK-293 clonal cell lines
T1 sequence (P48546 22-466): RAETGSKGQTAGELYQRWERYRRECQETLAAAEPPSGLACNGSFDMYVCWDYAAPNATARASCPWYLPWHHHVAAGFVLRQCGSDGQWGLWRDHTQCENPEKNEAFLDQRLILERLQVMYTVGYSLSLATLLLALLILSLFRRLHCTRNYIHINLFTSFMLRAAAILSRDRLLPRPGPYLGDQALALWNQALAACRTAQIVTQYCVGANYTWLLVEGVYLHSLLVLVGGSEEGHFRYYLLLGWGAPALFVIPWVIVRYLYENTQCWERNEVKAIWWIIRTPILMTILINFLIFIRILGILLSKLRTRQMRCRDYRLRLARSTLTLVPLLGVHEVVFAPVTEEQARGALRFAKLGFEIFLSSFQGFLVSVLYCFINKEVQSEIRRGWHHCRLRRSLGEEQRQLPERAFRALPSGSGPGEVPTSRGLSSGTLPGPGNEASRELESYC
Experiment: Functional hGIP-R Assay (cAMP formation, HTRF)
Assay type: cell-based
Settings: for Emax: cAMP efficacy, percent of maximal response to GIP(1-42)OH, 37° C., 0.1% bovine casein, arithmetic mean ± SEM; for EC50: cAMP potency, HEK-293 cells expressing hGIP-R, incubated at 37° C. in the presence of 0.1% bovine casein, geometric mean, read-out: Human GIP-R EC50, nM (SEM, n)
How it was run: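 HEK-293 cells expressing hGIP-R were given a 20-point compound series in DMEM with 0.1% casein, 250 μM IBMX, 1% DMSO, 30 min at 37 °C. cAMP was read by HTRF against a standard curve, expressed as % of human GIP (1-42) OH maximum; EC50 and Emax came from four-parameter fits.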

Emax [%] | EC50 [nM] | Compound
98.4 ± 3.96 | 53 | Cn1cc(C[C@@H](NC(=O)[C@H]2C[C@@H]2c2ccc(-c3cnc4nn(C)cc4c3)cc2)C(=O)NC(C)(C)Cn2nc(C(F)(F)F)cc2-c2ccn(C)c(=O)c2)cn1 [Example 52, (1S,2S)-N—((R)-1-((2-Methyl-1-(5-(1-methyl-2-oxo-1,2-dihydropyridin-4-yl)-3-(trifluoromethyl)-1H-pyrazol-1-yl)propan-2-yl)amino)-3-(1-methyl-1H-pyrazol-4-yl)-1-oxopropan-2-yl)-2-(4-(2-methyl-2H-pyrazolo[3,4-b]pyridin-5-yl)phenyl)cyclopropane-1-carboxamide]
137 ± 14.1 | 76.8 | Cn1cc(C[C@@H](NC(=O)[C@H]2C[C@@H]2c2ccc(-c3cnc4nn(C)cc4c3)cc2)C(=O)NC(C)(C)Cn2nc(C(F)(F)F)cc2-c2cnn(C3COC3)c2)cn1 [Example 54, (1S,2S)-N-((R)-1-((2-Methyl-1-(1′-(oxetan-3-yl)-5-(trifluoromethyl)-1′H,2H-[3,4′-bipyrazol]-2-yl)propan-2-yl)amino)-3-(1-methyl-1H-pyrazol-4-yl)-1-oxopropan-2-yl)-2-(4-(2-methyl-2H-pyrazolo[3,4-b]pyridin-5-yl)phenyl) cyclopropane-1-carboxamide]
109 ± 0.179 | 49.1 | Cn1cc(C[C@@H](NC(=O)[C@H]2C[C@@H]2c2ccc(-c3cnc4nn(C)cc4c3)cc2)C(=O)NC(C)(C)Cn2nc(C(F)(F)F)cc2-c2cnn(CC3COC3)c2)cn1 [Example 55, (1S,2S)-N-((R)-1-((2-Methyl-1-(1′-(oxetan-3-ylmethyl)-5-(trifluoromethyl)-1′H,2H-[3,4′-bipyrazol]-2-yl)propan-2-yl)amino)-3-(1-methyl-1H-pyrazol-4-yl)-1-oxopropan-2-yl)-2-(4-(2-methyl-2H-pyrazolo[3,4-b]pyridin-5-yl)phenyl) cyclopropane-1-carboxamide]
113 ± 10.7 | 84.6 | Cn1cc(C[C@@H](NC(=O)[C@H]2C[C@@H]2c2ccc(-c3cnc4nn(C)cc4c3)cc2)C(=O)NC(C)(C)Cn2nc(C(F)(F)F)cc2-c2cnn3c2CN(C(=O)OC(C)(C)C)CC3)cn1 [Example 56, tert-Butyl 3-(1-(2-methyl-2-((R)-3-(1-methyl-1H-pyrazol-4-yl)-2-((1S,2S)-2-(4-(2-methyl-2H-pyrazolo[3,4-b]pyridin-5-yl)phenyl)cyclopropane-1-carboxamido)propanamido)propyl)-3-(trifluoromethyl)-1H-pyrazol-5-yl)-6,7-dihydropyrazolo[1,5-a]pyrazine-5(4H)-carboxylate]
112 ± 14.8 | 61 | Cn1cc(C[C@@H](NC(=O)[C@H]2C[C@@H]2c2ccc(-c3cnc4nn(C)cc4c3)cc2)C(=O)NC(C)(C)Cn2nc(C(F)(F)F)cc2-c2cc3c(=O)[nH]cnn3c2)cn1 [Example 57, (1S,2S)-N-((R)-1-((2-Methyl-1-(5-(4-oxo-3,4-dihydropyrrolo[2,1-f][1,2,4]triazin-6-yl)-3-(trifluoromethyl)-1H-pyrazol-1-yl)propan-2-yl)amino)-3-(1-methyl-1H-pyrazol-4-yl)-1-oxopropan-2-yl)-2-(4-(2-methyl-2H-pyrazolo[3,4-b]pyridin-5-yl)phenyl) cyclopropane-1-carboxamide]
110 ± 1.71 | 23.8 | Cn1cc(C[C@@H](NC(=O)[C@H]2C[C@@H]2c2ccc(-c3cnc4nn(C)cc4c3)cc2)C(=O)NC(C)(C)Cn2nc(C(F)(F)F)cc2-c2cccn(C)c2=O)cn1 [Example 58, (1S,2S)-N-((R)-1-((2-Methyl-1-(5-(1-methyl-2-oxo-1,2-dihydropyridin-3-yl)-3-(trifluoromethyl)-1H-pyrazol-1-yl)propan-2-yl)amino)-3-(1-methyl-1H-pyrazol-4-yl)-1-oxopropan-2-yl)-2-(4-(2-methyl-2H-pyrazolo[3,4-b]pyridin-5-yl)phenyl) cyclopropane-1-carboxamide]
122 ± 2.6 | 49.1 | Cn1cc(C[C@@H](NC(=O)[C@H]2C[C@@H]2c2ccc(-c3cnc4nn(C)cc4c3)cc2)C(=O)NC(C)(C)Cn2nc(C(F)(F)F)cc2-c2ccc(=O)[nH]c2)cn1 [Example 59, (1S,2S)-N-((R)-1-((2-Methyl-1-(5-(6-oxo-1,6-dihydropyridin-3-yl)-3-(trifluoromethyl)-1H-pyrazol-1-yl)propan-2-yl)amino)-3-(1-methyl-1H-pyrazol-4-yl)-1-oxopropan-2-yl)-2-(4-(2-methyl-2H-pyrazolo[3,4-b]pyridin-5-yl)phenyl) cyclopropane-1-carboxamide]
88.5 ± 2.66 | 56.8 | CN(C(=O)[C@H]1C[C@@H]1c1ccc(-c2cnc3nn(C)cc3c2)cc1F)[C@H](Cc1cnn(C)c1)C(=O)NC(C)(C)Cn1nc(C(F)(F)F)cc1-c1ccc(=O)n(C)c1 [Example 61, (1S,2S)-2-(2-Fluoro-4-(2-methyl-2H-pyrazolo [3,4-b]pyridin-5-yl)phenyl)-N-methyl-N-((R)-1-((2-methyl-1-(5-(1-methyl-6-oxo-1,6-dihydropyridin-3-yl)-3-(trifluoromethyl)-1H-pyrazol-1-yl)propan-2-yl)amino)-3-(1-methyl-1H-pyrazol-4-yl)-1-oxopropan-2-yl) cyclopropane-1-carboxamide]
67.8 ± 10.2 | 17.5 | Cn1cc2cc(-c3ccc([C@H]4C[C@@H]4C(=O)N[C@H](Cc4cnc5ncccn45)C(=O)NC(C)(C)Cn4nc(C(F)(F)F)cc4-c4ccc(=O)n(C)c4)cc3)cnc2n1 [Example 62, (1S,2S)-N-((R)-3-(imidazo[1,2-a]pyrimidin-3-yl)-1-((2-methyl-1-(5-(1-methyl-6-oxo-1,6-dihydropyridin-3-yl)-3-(trifluoromethyl)-1H-pyrazol-1-yl)propan-2-yl)amino)-1-oxopropan-2-yl)-2-(4-(2-methyl-2H-pyrazolo[3,4-b]pyridin-5-yl)phenyl) cyclopropane-1-carboxamide]
62.1 ± 3.55 | 21.6 | Cn1cc2cc(-c3ccc([C@H]4C[C@@]45CCN([C@H](Cc4cnn(C(F)F)c4)C(=O)NC(C)(C)Cn4nc(C(F)(F)F)cc4-c4ccc(=O)n(C)c4)C5=O)cc3)cnc2n1 [Example 63, (R)-3-(1-(Difluoromethyl)-1H-pyrazol-4-yl)-N-(2-methyl-1-(5-(1-methyl-6-oxo-1,6-dihydropyridin-3-yl)-3-(trifluoromethyl)-1H-pyrazol-1-yl)propan-2-yl)-2-((1R,3R)-1-(4-(2-methyl-2H-pyrazolo[3,4-b]pyridin-5-yl)phenyl)-4-oxo-5-azaspiro[2.4]heptan-5-yl)propanamide]
128 | 61.9 | Cn1cc(C[C@@H](NC(=O)[C@H]2C[C@@H]2c2ccc(-c3cnc4nn(C)cc4c3)cc2)C(=O)NC(C)(C)Cn2nc(C(F)(F)F)cc2-c2cccc(=O)[nH]2)cn1 [Example 64, (1S,2S)-N—((R)-1-((2-Methyl-1-(5-(6-oxo-1,6-dihydropyridin-2-yl)-3-(trifluoromethyl)-1H-pyrazol-1-yl)propan-2-yl)amino)-3-(1-methyl-1H-pyrazol-4-yl)-1-oxopropan-2-yl)-2-(4-(2-methyl-2H-pyrazolo[3,4-b]pyridin-5-yl)phenyl)cyclopropane-1-carboxamide]
113 ± 4.23 | 38.1 | COCn1ncc(-c2cc(C(F)(F)F)nn2CC(C)(C)NC(=O)[C@@H](Cc2cnn(C)c2)NC(=O)[C@H]2C[C@@H]2c2ccc(-c3cnc4nn(C)cc4c3)cc2)n1 [Example 65, (1S,2S)-N—((R)-1-((1-(5-(2-(Methoxymethyl)-2H-1,2,3-triazol-4-yl)-3-(trifluoromethyl)-1H-pyrazol-1-yl)-2-methylpropan-2-yl)amino)-3-(1-methyl-1H-pyrazol-4-yl)-1-oxopropan-2-yl)-2-(4-(2-methyl-2H-pyrazolo[3,4-b]pyridin-5-yl)phenyl)cyclopropane-1-carboxamide]
118 ± 0.533 | 99.3 | Cn1cc(C[C@@H](NC(=O)[C@H]2C[C@@H]2c2ccc(-c3cnc4nn(C)cc4c3)cc2)C(=O)NC(C)(C)Cn2nc(C(F)(F)F)cc2-c2cnn(C)n2)cn1 [Example 66, (1S,2S)-N—((R)-1-((2-Methyl-1-(5-(2-methyl-2H-1,2,3-triazol-4-yl)-3-(trifluoromethyl)-1H-pyrazol-1-yl)propan-2-yl)amino)-3-(1-methyl-1H-pyrazol-4-yl)-1-oxopropan-2-yl)-2-(4-(2-methyl-2H-pyrazolo[3,4-b]pyridin-5-yl)phenyl)cyclopropane-1-carboxamide]
115 ± 8.68 | 45 | Cn1cc(C[C@@H](NC(=O)[C@H]2C[C@@H]2c2ccc(-c3cnc4nn(C)cc4c3)cc2)C(=O)NC(C)(C)Cn2nc(C(F)(F)F)cc2-c2ccn(C[C@H]3C[C@H](F)C3)n2)cn1 [Example 67, (1S,2S)-N—((R)-1-((1-(1-(((trans)-3-fluorocyclobutyl)methyl)-5′-(trifluoromethyl)-1H,2′H-[3,3′-bipyrazol]-2′-yl)-2-methylpropan-2-yl)amino)-3-(1-methyl-1H-pyrazol-4-yl)-1-oxopropan-2-yl)-2-(4-(2-methyl-2H-pyrazolo[3,4-b]pyridin-5-yl)phenyl)cyclopropane-1-carboxamide]
